Measured values reported in patent US12655145B2, “P2X3 modulators” (GlaxoSmithKline Intellectual Property (No. 3) Limited, priority 2020, dated 2026).

Each molecule was assayed against T1, P2X3 (Homo sapiens, UniProt P56373) (assay: P2X3 Antagonist Assay (FLIPR calcium, Fluo-8, HEK293 cells transfected with human ion channel cDNAs, αβ-meATP stimulation)). Details: @ 1 μM, antagonist mode, αβ-meATP 3 μM.
T1 construct: expressed in transfected cells; host or cells: HEK293
T1 sequence (P56373 1-397): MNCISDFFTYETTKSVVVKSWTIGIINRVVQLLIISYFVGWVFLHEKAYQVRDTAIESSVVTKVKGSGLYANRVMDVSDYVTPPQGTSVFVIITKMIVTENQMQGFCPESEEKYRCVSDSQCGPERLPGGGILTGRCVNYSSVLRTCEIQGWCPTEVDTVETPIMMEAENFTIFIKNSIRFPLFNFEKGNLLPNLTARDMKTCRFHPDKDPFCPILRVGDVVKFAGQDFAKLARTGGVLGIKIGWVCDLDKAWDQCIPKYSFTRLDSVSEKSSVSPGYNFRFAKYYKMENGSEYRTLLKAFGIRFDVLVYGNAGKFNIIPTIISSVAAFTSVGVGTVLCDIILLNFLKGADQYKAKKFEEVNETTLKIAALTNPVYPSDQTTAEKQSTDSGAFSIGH
Format: cell-based
Procedure: Example 59: P2X3 Antagonist Assay
HEK293 were transiently or stably transfected with human ion channel cDNAs as indicated in section 1. Stable transfectants were selected by coexpression with the antibiotic-resistance gene(s) incorporated into the expression plasmid(s). Selection pressure was maintained by including selection antibiotics in the culture medium. HEK293 cells were cultured in Dulbecco's Modified Eagle Medium/Nutrient Mixture F-12 (D-MEM/F-12) supplemented with 10% fetal bovine serum, 100 U/mL penicillin G sodium, 100 J·Lg/mL streptomycin sulfate and appropriate selection antibiotics.
The effect of each test article to act as an antagonist was evaluated. Each test article was evaluated at eight (8) concentrations (0.001, 0.003, 0.01, 0.03, 0.1, 0.3, 1 and 3 μM, n=3) with 4 replicates for each concentration. Experiments were performed with the FLIPR calcium sensitive dye kit (Fluo-8 dye, AAT, Bioquest) according to the manufacturer's instructions. • Dye-loading: Growth media will be removed and add 20 μL of Mg^++-free HBPS containing Fluo-8 for 30 min at 37° C. • Preincubation (FLIPR step 1): Adding 5× (5 μL) test, vehicle, or control article solutions in Mg^+-free HBPS to each well for 20 minutes at room temperature, protected from light. • Stimulation (FLIPR step 2): After pre-incubation, cells will be stimulated with 6× (5 μL) αβ-meATP at final concentration of 3 μM prepared in Mg^++-free HBPS. • Non-Specific Calcium Influx (FLIPR step 3): 5 minutes after stimulation solution addition, non-specific calcium influx will be activated by adding 7×(5 μL) ionomycin at a final concentration of 5 μM. Fluorescence will be recorded continuously during FLIPR steps 2 and 3. • Positive Control Antagonist: PPADS (1 mM).
Data acquisition was performed via the FLIPRControl software that is supplied with the FLIPR System (MDS-AT) and data was analyzed using Microsoft Excel2003 (Microsoft Corp., Redmond, WA).

P2X3 IC50 column, given as % @ 1 μM [% @ 1 μM] | Structure (SMILES)
23 | CNC(=O)c1cc(F)c(-c2nc3cc(C)ccn3c2CC2COCCN(C(=O)OC)C2)c(F)c1 (single isomer, unassigned) [A16 (Peak 2), methyl 6-((2-(2,6-difluoro-4-(methylcarbamoyl)phenyl)-7-meth-ylimidazo[1,2-a]pyridin-3-yl)methyl)-1,4-oxazepane-4-carboxylate]
21 | CNC(=O)c1cc(F)c(-c2nc3cc(C)ccn3c2CC2CCCCN(C(=O)OC)C2)c(F)c1 (single isomer, unassigned) [A17 (Peak 2), methyl 3-((2-(2,6-difluoro-4-(methylcarbamoyl)phenyl)-7-methylimidazo[1,2-a]pyridin-3-yl)methyl)azepane-1-carboxylate]
17 | CNC(=O)c1cc(F)c(-c2nc3cc(C)ccn3c2CC2CCCC(NC(C)=O)C2)c(F)c1 (single isomer, unassigned) [trans-A22 (Peak 2), 4-(3-((3-acetamidocyclohexyl)methyl)-7-methylimidazo[1,2-a]pyridin-2-yl)-3,5-difluoro-N-methylbenzamide]

Same assay, conditions: @ 1 μM, antagonist mode, αβ-meATP 3 μM, read-out: P2X3 IC50 column, given as % @ 1 μM

Structure (SMILES) | inhibition at 1 µM [%]
CNC(=O)c1ccc(-c2nc3cc([S+](C)[O-])ccn3c2C[C@H]2CN(C(=O)OC)CCO2)c(F)c1 (single isomer, unassigned) [A47 (Peak 1)] | 5

Same assay, conditions: HEK293, @ 1 μM, antagonist mode, αβ-meATP 3 μM, read-out: P2X3 IC50 column, given as % @ 1 μM

inhibition at 1 µM [%] | Structure (SMILES)
39 | CNC(=O)c1cc(F)c(-c2nc3cc(C)ccn3c2CC2CN(C(=O)OC)CCCO2)c(F)c1 (single isomer, unassigned) [A14 (Peak 1), methyl 2-((2-(2,6-difluoro-4-(methylcarbamoyl)phenyl)-7-methylimidazo[1,2-a]pyridin-3-yl)methyl)-1,4-oxazepane-4-carboxylate]
29 | CNC(=O)c1cc(F)c(-c2nc3cc(C)ccn3c2CC2COCCN(C(=O)OC)C2)c(F)c1 (single isomer, unassigned) [A16 (Peak 1), methyl 6-((2-(2,6-difluoro-4-(methylcarbamoyl)phenyl)-7-meth-ylimidazo[1,2-a]pyridin-3-yl)methyl)-1,4-oxazepane-4-carboxylate]
30 | CNC(=O)c1cc(F)c(-c2nc3cc(C)ccn3c2CC2CCCCN(C(=O)OC)C2)c(F)c1 (single isomer, unassigned) [A17 (Peak 1), methyl 3-((2-(2,6-difluoro-4-(methylcarbamoyl)phenyl)-7-methylimidazo[1,2-a]pyridin-3-yl)methyl)azepane-1-carboxylate]
22 | CNC(=O)c1cc(F)c(-c2nc3cc(C)ccn3c2CC2CCCC(NC(C)=O)C2)c(F)c1 (single isomer, unassigned) [trans-A22 (Peak 1), 4-(3-((3-acetamidocyclohexyl)methyl)-7-methylimidazo[1,2-a]pyridin-2-yl)-3,5-difluoro-N-methylbenzamide]

Same assay, conditions: antagonist mode, αβ-meATP 3 μM

IC50 [nM] | Structure (SMILES)
< 100 | CNC(=O)c1cc(F)c(-c2nc3cc(C)ccn3c2CC2CN(C(=O)OC)CCCO2)c(F)c1 (single isomer, unassigned) [A14 (Peak 2), methyl 2-((2-(2,6-difluoro-4-(methylcarbamoyl)phenyl)-7-methylimidazo[1,2-a]pyridin-3-yl)methyl)-1,4-oxazepane-4-carboxylate]
< 100 | CNC(=O)c1cc(F)c(-c2nc3cc(C)ccn3c2CC2CCCN(C(=O)OC)CC2)c(F)c1 (single isomer, unassigned) [A18 (Peak 1), methyl 4-((2-(2,6-difluoro-4-(methylcarbamoyl)phenyl)-7-methylimidazo[1,2-a]pyridin-3-yl)methyl)azepane-1-carboxylate]
100 to 1000 | CNC(=O)c1cc(F)c(-c2nc3cc(C)ccn3c2CC2CCCN(C(=O)OC)CC2)c(F)c1 (single isomer, unassigned) [A18 (Peak 2), methyl 4-((2-(2,6-difluoro-4-(methylcarbamoyl)phenyl)-7-methylimidazo[1,2-a]pyridin-3-yl)methyl)azepane-1-carboxylate]
> 1000 | CNC(=O)c1ccc(-c2nc3cc(C(O)C(F)(F)F)ccn3c2C[C@H]2CN(C(=O)OC)CCO2)c(F)c1 (single isomer, unassigned) [A46 (Peak 1)]
> 1000 | CNC(=O)c1ccc(-c2nc3cc(C(O)C(F)(F)F)ccn3c2C[C@H]2CN(C(=O)OC)CCO2)c(F)c1 (single isomer, unassigned) [A46 (Peak 2)]
< 100 | CNC(=O)c1cc(F)c(-c2nc3cc(C)ccn3c2CC2CCCC(NC(C)=O)C2)c(F)c1 (single isomer, unassigned) [cis-A22 (Peak 1), 4-(3-((3-acetamidocyclohexyl)methyl)-7-methylimidazo[1,2-a]pyridin-2-yl)-3,5-difluoro-N-methylbenzamide]
< 100 | CNC(=O)c1cc(F)c(-c2nc3cc(C)ccn3c2CC2CCCC(NC(C)=O)C2)c(F)c1 (single isomer, unassigned) [cis-A22 (Peak 2), 4-(3-((3-acetamidocyclohexyl)methyl)-7-methylimidazo[1,2-a]pyridin-2-yl)-3,5-difluoro-N-methylbenzamide]
< 100 | CNC(=O)c1cc(F)c(-c2nc3cc(C)ccn3c2C[C@H]2CCCN(C(=O)OC)C2)c(F)c1 [(R)-A19, methyl (R)-3-((2-(2,6-difluoro-4-(methylcarbamoyl)phenyl)-7-methylimidazo[1,2-a]pyridin-3-yl)methyl)piperidine-1-carboxylate]
< 100 | CNC(=O)c1cc(F)c(-c2nc3cc(C)ccn3c2C[C@@H]2CCCN(C(=O)OC)C2)c(F)c1 [(S)-A19, methyl (S)-3-((2-(2,6-difluoro-4-(methylcarbamoyl)phenyl)-7-methylimidazo[1,2-a]pyridin-3-yl)methyl)piperidine-1-carboxylate]
100 to 1000 | CNC(=O)c1cc(F)c(-c2nc3cc(F)ccn3c2C[C@H]2CN(C(=O)OC)CCO2)c(F)c1 [Compound A1, methyl (S)-2-((2-(2,6-difluoro-4-(methylcarbamoyl)phenyl)-7-fluoroimidazo[1,2-a]pyridin-3-yl)methyl)morpholine-4-carboxylate]
< 100 | CNC(=O)c1cc(F)c(-c2nc3cc(Cl)ccn3c2C[C@H]2CN(C(=O)OC)CCO2)c(F)c1 [Compound A2, methyl (S)-2-((7-chloro-2-(2,6-difluoro-4-(methyl-carb-amoyl)-phenyl)-imidazo[1,2-a]pyridin-3-yl)methyl)morpholine-4-carboxylate]
< 100 | CNC(=O)c1cc(F)c(-c2nc3cc(OC)ccn3c2C[C@H]2CN(C(=O)OC)CCO2)c(F)c1 [Compound A3, methyl (S)-2-((2-(2,6-difluoro-4-(methylcarbamoyl)phenyl)-7-methoxyimidazo[1,2-a]pyridin-3-yl)methyl)morpholine-4-carboxylate]
< 100 | CNC(=O)c1cc(F)c(-c2nc3cc(C(F)F)ccn3c2C[C@H]2CN(C(=O)OC)CCO2)c(F)c1 [Compound A4, methyl (S)-2-((2-(2,6-difluoro-4-(methylcarbamoyl)phenyl)-7-(di-fluoromethyl)imidazo[1,2-a]pyridin-3-yl)methyl)morpholine-4-carboxylate]
100 to 1000 | CNC(=O)c1cc(F)c(-c2nc3cc(C(F)(F)F)ccn3c2C[C@H]2CN(C(=O)OC)CCO2)c(F)c1 [Compound A5, methyl (S)-2-((2-(2,6-difluoro-4-(methylcarbamoyl)phenyl)-7-(trifluoromethyl)imidazo[1,2-a]pyridin-3-yl)methyl)morpholine-4-carboxylate]
< 100 | CNC(=O)c1cc(F)c(-c2nc3cc(C)ccn3c2C[C@H]2CN(C(=O)OC)CCO2)c(F)c1F [Compound A6, methyl (S)-2-((7-methyl-2-(2,3,6-trifluoro-4-(methylcarbamoyl)-phenyl)imidazo[1,2-a]pyridin-3-yl)methyl)morpholine-4-carboxylate]

Structure (SMILES) | IC50 [nM]
CNC(=O)c1ccc(-c2nc3cc([S+](C)[O-])ccn3c2C[C@H]2CN(C(=O)OC)CCO2)c(F)c1 (single isomer, unassigned) [A47 (Peak 2)] | > 1000
